Assay results as given in ChEMBL document CHEMBL1201862, “PubChem BioAssay data set” (2004).
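Five concentrations, 48 hours, 96-well plates. GI50: concentration for 50% inhibition of growth.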 Activity calls are given as the source filed them. Cut-off read from the data, not from the text of the source: active = GI50 up to about 1.1 µM and inactive = higher.

How the values were obtained:
Test in all cases: NCI tumour cell line growth inhibition, 48 h
SR = tested on: SR
NCI-H226 = tested on: NCI-H226
M14 = tested on: M14
786-0 = tested on: 786-0
OVCAR-8 = tested on: OVCAR-8
HOP-62 = tested on: HOP-62
T47D = tested on: T47D
IGROV-1 = tested on: IGROV-1
U-251 = tested on: U-251
OVCAR-5 = tested on: OVCAR-5
SNB-75 = tested on: SNB-75
HT-29 = tested on: HT-29
UACC-257 = tested on: UACC-257
CCRF-CEM = tested on: CCRF-CEM
MDA-N = tested on: MDA-N
BT-549 = tested on: BT-549
UO-31 = tested on: UO-31
SNB-19 = tested on: SNB-19
SF-268 = tested on: SF-268

SMILES: O=C(O)C1C2C=CC(O2)C1C(=O)Nc1ccccc1 (stereo not drawn)
- GI50 (SR): > 100 µM (inactive)
- GI50 (NCI-H226): > 100 µM (inactive)
- GI50 (M14): > 100 µM (inactive)
- GI50 (786-0): > 100 µM (inactive)
- GI50 (OVCAR-8): > 100 µM (inactive)
- GI50 (HOP-62): > 100 µM (inactive)
- GI50 (T47D): > 100 µM (inactive)
- GI50 (IGROV-1): > 100 µM (inactive)
- GI50 (U-251): > 100 µM (inactive)
- GI50 (OVCAR-5): > 100 µM (inactive)
- GI50 (SNB-75): > 100 µM (inactive)
- GI50 (HT-29): > 100 µM (inactive)
- GI50 (UACC-257): > 100 µM (inactive)
- GI50 (CCRF-CEM): > 100 µM (inactive)
- GI50 (MDA-N): > 100 µM (inactive)
- GI50 (BT-549): > 100 µM (inactive)
- GI50 (UO-31): > 100 µM (inactive)
- GI50 (SNB-19): > 100 µM (inactive)
- GI50 (SF-268): > 100 µM (inactive)

SMILES: CN1CCc2cc(N)cc3c2C1Cc1ccc2c(c1-3)OCO2 (stereo not drawn)
- GI50 (SR): 11 µM (inactive)
- GI50 (NCI-H226): 34 µM (inactive)
- GI50 (M14): 30.8 µM (inactive)
- GI50 (786-0): 26.9 µM (inactive)
- GI50 (OVCAR-8): 21.6 µM (inactive)
- GI50 (HOP-62): 34.8 µM (inactive)
- GI50 (T47D): 36.1 µM (inactive)
- GI50 (IGROV-1): 20.5 µM (inactive)
- GI50 (U-251): 36.8 µM (inactive)
- GI50 (OVCAR-5): 42.4 µM (inactive)
- GI50 (SNB-75): 31.9 µM (inactive)
- GI50 (HT-29): 30.7 µM (inactive)
- GI50 (UACC-257): 22.5 µM (inactive)
- GI50 (CCRF-CEM): 1.97 µM (inactive)
- GI50 (MDA-N): 19.2 µM (inactive)
- GI50 (BT-549): 43 µM (inactive)
- GI50 (UO-31): 35.2 µM (inactive)
- GI50 (SNB-19): 61.8 µM (inactive)
- GI50 (SF-268): 33.5 µM (inactive)

SMILES: c1ccc(CC2COC(c3cccs3)=N2)cc1 (stereo not drawn)
- GI50 (SR): 46.7 µM (inactive)
- GI50 (NCI-H226): 67.9 µM (inactive)
- GI50 (M14): > 100 µM (inactive)
- GI50 (786-0): > 100 µM (inactive)
- GI50 (OVCAR-8): > 100 µM (inactive)
- GI50 (HOP-62): > 100 µM (inactive)
- GI50 (T47D): 26 µM (inactive)
- GI50 (IGROV-1): > 100 µM (inactive)
- GI50 (U-251): 53 µM (inactive)
- GI50 (OVCAR-5): > 100 µM (inactive)
- GI50 (SNB-75): 42.6 µM (inactive)
- GI50 (HT-29): > 100 µM (inactive)
- GI50 (UACC-257): > 100 µM (inactive)
- GI50 (CCRF-CEM): 38.1 µM (inactive)
- GI50 (MDA-N): > 100 µM (inactive)
- GI50 (BT-549): 54.8 µM (inactive)
- GI50 (UO-31): 64.1 µM (inactive)
- GI50 (SNB-19): > 70.3 µM (inactive)
- GI50 (SF-268): > 91 µM (inactive)

SMILES: Cc1cc(N(CCC#N)CCC#N)ccc1C(=N/NC(=O)c1cc(Cl)ccc1O)/N=N/c1cccc(Cl)c1
- GI50 (SR): 6.04 µM (inactive)
- GI50 (NCI-H226): 18.8 µM (inactive)
- GI50 (M14): 15.5 µM (inactive)
- GI50 (786-0): 11.5 µM (inactive)
- GI50 (OVCAR-8): 12.1 µM (inactive)
- GI50 (HOP-62): 13.2 µM (inactive)
- GI50 (T47D): 15.4 µM (inactive)
- GI50 (IGROV-1): 1.4 µM (inactive)
- GI50 (U-251): 25.2 µM (inactive)
- GI50 (OVCAR-5): 41.6 µM (inactive)
- GI50 (SNB-75): 13.5 µM (inactive)
- GI50 (HT-29): 16.1 µM (inactive)
- GI50 (UACC-257): 15.2 µM (inactive)
- GI50 (CCRF-CEM): 4.41 µM (inactive)
- GI50 (MDA-N): 29.5 µM (inactive)
- GI50 (BT-549): 14.8 µM (inactive)
- GI50 (UO-31): 18.9 µM (inactive)
- GI50 (SNB-19): 22.9 µM (inactive)
- GI50 (SF-268): 11.8 µM (inactive)

SMILES: CCN(CC)S(=O)(=O)c1ccc2[nH]c(NC(=O)OC)nc2c1
- GI50 (SR): 28.9 µM (inactive)
- GI50 (NCI-H226): > 100 µM (inactive)
- GI50 (M14): 47.6 µM (inactive)
- GI50 (786-0): 64.4 µM (inactive)
- GI50 (OVCAR-8): 45.1 µM (inactive)
- GI50 (HOP-62): 40.3 µM (inactive)
- GI50 (T47D): 53.8 µM (inactive)
- GI50 (IGROV-1): 32.4 µM (inactive)
- GI50 (U-251): > 100 µM (inactive)
- GI50 (OVCAR-5): > 100 µM (inactive)
- GI50 (SNB-75): 42.6 µM (inactive)
- GI50 (HT-29): 40.9 µM (inactive)
- GI50 (UACC-257): 8.02 µM (inactive)
- GI50 (CCRF-CEM): 25.9 µM (inactive)
- GI50 (MDA-N): 18.5 µM (inactive)
- GI50 (BT-549): > 100 µM (inactive)
- GI50 (UO-31): 46.3 µM (inactive)
- GI50 (SNB-19): 70.5 µM (inactive)
- GI50 (SF-268): 99.3 µM (inactive)

SMILES: Cc1cc2nc3c(C#N)c(C)c(CCCl)c(Cl)n3c2cc1C
- GI50 (SR): 2.29 µM (inactive)
- GI50 (NCI-H226): 0.166 µM (active)
- GI50 (M14): 2.27 µM (inactive)
- GI50 (786-0): 2 µM (inactive)
- GI50 (OVCAR-8): 2.63 µM (inactive)
- GI50 (HOP-62): 2.44 µM (inactive)
- GI50 (T47D): 3.13 µM (inactive)
- GI50 (IGROV-1): 2.09 µM (inactive)
- GI50 (U-251): > 43.5 µM (inactive)
- GI50 (OVCAR-5): 2.18 µM (inactive)
- GI50 (SNB-75): 1.87 µM (inactive)
- GI50 (HT-29): 2.46 µM (inactive)
- GI50 (UACC-257): 2.23 µM (inactive)
- GI50 (CCRF-CEM): 2.34 µM (inactive)
- GI50 (MDA-N): 2.61 µM (inactive)
- GI50 (BT-549): 2.49 µM (inactive)
- GI50 (UO-31): 2.02 µM (inactive)
- GI50 (SNB-19): 10.8 µM (inactive)
- GI50 (SF-268): 2.36 µM (inactive)

SMILES: C=C(C)/C=C/C(O)[C@](C)(O)[C@H]1[C@H](O)C[C@@]2(C)[C@@H]3CCc4c(cc(OC5OC(CO)C(O)C(O)C5O)c(O)c4C)C3(C)C(=O)C[C@]12C (stereo partly drawn)
- GI50 (SR): > 100 µM (inactive)
- GI50 (NCI-H226): > 100 µM (inactive)
- GI50 (M14): > 100 µM (inactive)
- GI50 (786-0): > 100 µM (inactive)
- GI50 (OVCAR-8): > 100 µM (inactive)
- GI50 (HOP-62): > 100 µM (inactive)
- GI50 (T47D): > 100 µM (inactive)
- GI50 (IGROV-1): > 100 µM (inactive)
- GI50 (U-251): > 100 µM (inactive)
- GI50 (OVCAR-5): > 100 µM (inactive)
- GI50 (SNB-75): > 100 µM (inactive)
- GI50 (HT-29): > 100 µM (inactive)
- GI50 (UACC-257): > 100 µM (inactive)
- GI50 (CCRF-CEM): > 100 µM (inactive)
- GI50 (MDA-N): > 100 µM (inactive)
- GI50 (BT-549): > 10 µM (inactive)
- GI50 (UO-31): > 100 µM (inactive)
- GI50 (SNB-19): > 100 µM (inactive)
- GI50 (SF-268): > 100 µM (inactive)
